In patent US9133181B2, “Substituted 6-(4-hydroxy-phenyl)-1H-pyrazolo[3,4-b]pyridine derivatives as kinase inhibitors” (SANOFI, priority 2012, dated 2015):

molecular target: T1, human full-length recombinant PKC βII (Homo sapiens, UniProt P05771); test: Determination of PKC βII inhibition (Caliper mobility shift kinase assay); format: biochemical; conditions: final compound concentration 1.14 μM (±0.15 μM); 60 min incubation at 32° C.
T1 construct: Active human full-length recombinant PKC βII; purchased Invitrogen GmbH, Darmstadt, Germany
T1 sequence (P05771 1-673 isoform P05771-2): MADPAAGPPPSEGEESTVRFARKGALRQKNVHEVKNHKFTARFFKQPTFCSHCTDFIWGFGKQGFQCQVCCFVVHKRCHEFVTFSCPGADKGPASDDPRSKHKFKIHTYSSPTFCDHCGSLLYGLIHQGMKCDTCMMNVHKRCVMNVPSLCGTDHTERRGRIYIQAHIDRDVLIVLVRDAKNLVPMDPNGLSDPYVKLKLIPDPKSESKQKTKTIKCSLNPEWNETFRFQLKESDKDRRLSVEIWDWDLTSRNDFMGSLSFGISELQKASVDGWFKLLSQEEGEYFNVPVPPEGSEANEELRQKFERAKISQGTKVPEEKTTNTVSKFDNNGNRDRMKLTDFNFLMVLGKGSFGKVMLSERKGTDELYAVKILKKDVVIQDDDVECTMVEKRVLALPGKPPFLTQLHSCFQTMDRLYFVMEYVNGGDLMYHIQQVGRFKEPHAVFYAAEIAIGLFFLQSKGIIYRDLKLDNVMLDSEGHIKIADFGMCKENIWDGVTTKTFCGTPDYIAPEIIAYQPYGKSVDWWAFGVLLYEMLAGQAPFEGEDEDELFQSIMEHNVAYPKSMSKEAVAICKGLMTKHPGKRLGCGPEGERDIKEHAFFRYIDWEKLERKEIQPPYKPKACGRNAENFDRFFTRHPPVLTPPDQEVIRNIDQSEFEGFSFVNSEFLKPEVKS
Experimental: Determination of PKC βII Inhibition
PKC βII inhibition was determined according to the following protocol:
Active human full-length recombinant PKC βII and the peptide substrate, Fluorescein-RFARKGSLRQKNV, were purchased from Invitrogen GmbH, Darmstadt, Germany. Adenosine-5′-triphosphate (ATP), bovine serum albumine (BSA), dimethylsulphoxide (DMSO), 4-(2-hydroxyethyl)piperazine-1-ethanesulfonic acid (Hepes), Triton X-100, 1,2-Dioleoyl-sn-glycerol (DAG), L-α-Phosphatidyl-L-serine (PS), calcium chloride (CaCl2), and Pluronic F-68 were purchased from Sigma-Aldrich, Munich, Germany. Magnesium chloride, 1 M sodium hydroxide solution, 1M hydrochloric acid solution and EDTA were obtained from Merck Biosciences, Darmstadt, Germany.
Test compounds were diluted to three times the test concentration in buffer 1 (30 mM Hepes-NaOH, pH 7.4, 0.01% Pluronic F-68 and 3% (v/v) DMSO). The […] enzyme was diluted to a concentration of 30 ng/ml in buffer 2 (30 mM Hepes-NaOH, pH 7.4, 15 mM MgCl2, 150 μM CaCl2, 150 μg/ml PS, 60 μg/ml DAG, and 0.045% (w/v) Triton X-100). The peptide substrate and ATP were diluted to concentrations of 3 μM and 120 μM, respectively, in buffer 2. Two μl of the compound solution were mixed with 2 μl of the diluted enzyme in a 384-well small volume microtiter plate (Greiner, Bio-One, Frickenhausen, Germany), and the kinase reaction was initiated by addition of 2 μl of the solution containing peptide substrate and ATP. After 60 min incubation at 32° C., the reaction was stopped by addition of 20 μl of a solution containing 130 mM Hepes-NaOH, pH 7.4, 0.0195% (v/v) Brij-35, 6.5 mM EDTA, 0.13% chip coating reagent 3 (Caliper Lifescience Inc, Hopkinton, Mass.) and 6.5% (v/v) DMSO. Phosphorylation of the substrate peptide was then detected on a Caliper 3000 instrument essentially as described by Pommereau et al (J. Biomol. Screening 2004, 9(5), 409-416). Separation conditions were as follows: Pressure −0.8 psi, upstream voltage −3000 V, downstream voltage −800 V. Positive controls (buffer 1 instead of compound) and negative controls (buffer 1 instead of compound and buffer 2 instead of kinase solution) were run in parallel on each plate. Fractional turnover (R) was determined as the height of the peak of the phosphorylated peptide product divided by the sum of the unphosphorylated substrate and phosphorylated product peak heights. Percent-inhibition values for the test compounds were determined using the formula % Inhibition=100*(1−(Rcompound−Rnegative control)/(Rpositive control−Rnegative control).
In the following table % inhibition values observed with example compounds at a final concentration of 1.14 μM (±0.15 μM) are listed: […]

inhibition at 1.14 µM [%] | SMILES
97 | Cc1n[nH]c2nc(-c3ccc(O)cc3F)cc(CN3CC(C)(C)NCC3(C)C)c12 [Example 28, 3-Fluoro-4-[3-methyl-4-(2,2,5,5-tetramethyl-piperazin-1-ylmethyl)-1H-pyrazolo[3,4-b]pyridin-6-yl]-phenol]
97 | CC[C@@H]1CN(Cc2cc(-c3ccc(O)cc3F)nc3[nH]nc(C)c23)[C@@H](C)CN1 [Example 30, 4-[4-((2S,5R)-5-Ethyl-2-methyl-piperazin-1-ylmethyl)-3-methyl-1H-pyrazolo[3,4-b]pyridin-6-yl]-3-fluoro-phenol]
101 | CCC1(C)CNC(C)(C)CN1Cc1cc(-c2ccc(O)cc2F)nc2[nH]nc(C)c12 (centres unmarked) [Example 31, 4-[4-(2-Ethyl-2,5,5-trimethyl-piperazin-1-ylmethyl)-3-methyl-1H-pyrazolo[3,4-b]pyridin-6-yl]-3-fluoro-phenol]
101 | CCC1(CC)CNC(C)(C)CN1Cc1cc(-c2ccc(O)cc2F)nc2[nH]nc(C)c12 [Example 32, 4-[4-(2,2-Diethyl-5,5-dimethyl-piperazin-1-ylmethyl)-3-methyl-1H-pyrazolo[3,4-b]pyridin-6-yl]-3-fluoro-phenol]
93 | Cc1n[nH]c2nc(-c3ccc(O)cc3)cc(CN3CC4(CCCC4)NCC3C)c12 (centres unmarked) [Example 33, 4-[3-Methyl-4-(8-methyl-6,9-diaza-spiro[4.5]dec-9-ylmethyl)-1H-pyrazolo[3,4-b]pyridin-6-yl]-phenol]
73 | Cc1n[nH]c2nc(-c3ccc(O)cc3F)cc(CN3CC(C)(C)NCC3(C)C3CC3)c12 (centres unmarked) [Example 34, 4-[4-(2-Cyclopropyl-2,5,5-trimethyl-piperazin-1-ylmethyl)-3-methyl-1H-pyrazolo[3,4-b]pyridin-6-yl]-3-fluoro-phenol]
78 | Cc1n[nH]c2nc(-c3ccc(O)cc3F)cc(CN3CC4(CCCC4)NCC3C)c12 (centres unmarked) [Example 35, 3-Fluoro-4-[3-methyl-4-(8-methyl-6,9-diaza-spiro[4.5]dec-9-ylmethyl)-1H-pyrazolo[3,4-b]pyridin-6-yl]-phenol]
94 | Cc1n[nH]c2nc(-c3ccc(O)cc3F)cc(CN3CC4(CCCC4)NCC3(C)C)c12 [Example 36, 4-[4-(8,8-Dimethyl-6,9-diaza-spiro[4.5]dec-9-ylmethyl)-3-methyl-1H-pyrazolo[3,4-b]pyridin-6-yl]-3-fluoro-phenol]
94 | Cc1n[nH]c2nc(-c3ccc(O)cc3F)cc(CN3CC(C)(C)NCC3C(C)C)c12 (centres unmarked) [Example 37, 3-Fluoro-4-[4-(2-isopropyl-5,5-dimethyl-piperazin-1-ylmethyl)-3-methyl-1H pyrazolo[3,4-b]pyridin-6-yl]-phenol]
99 | Cc1n[nH]c2nc(-c3ccc(O)cc3F)cc(CN3CC(C)(C)NCC3C)c12 (centres unmarked) [Example 38, 3-Fluoro-4-[3-methyl-4-(2,5,5-trimethyl-piperazin-1-ylmethyl)-1H-pyrazolo[3,4-b]pyridin-6-yl]-phenol]
100 | CCC1CNC(C)(C)CN1Cc1cc(-c2ccc(O)cc2F)nc2[nH]nc(C)c12 (centres unmarked) [Example 39, 4-[4-(2-Ethyl-5,5-dimethyl-piperazin-1-ylmethyl)-3-methyl-1H-pyrazolo[3,4-b]pyridin-6-yl]-3-fluoro-phenol]
97 | Cc1n[nH]c2nc(-c3ccc(O)cc3)cc(CN3CCNCC34CC4)c12 [Example 40, 4-[4-(4,7-Diaza-spiro[2.5]oct-4-ylmethyl)-3-methyl-1H-pyrazolo[3,4-b]pyridin-6-yl]-phenol]
93 | Cc1n[nH]c2nc(-c3ccc(O)cc3)cc(CN3CCNCC3c3ccccc3)c12 (centres unmarked) [Example 41, 4-[3-Methyl-4-(2-phenyl-piperazin-1-ylmethyl)-1H-pyrazolo[3,4-b]pyridin-6-yl]-phenol]
94 | Cc1n[nH]c2nc(-c3ccc(O)cc3)cc(CN3CCNCC3c3ccc(F)cc3)c12 (centres unmarked) [Example 42, 4-{4-[2-(4-Fluoro-phenyl)-piperazin-1-ylmethyl]-3-methyl-1H-pyrazolo[3,4-b]pyridin-6-yl}-phenol]
38 | Cc1n[nH]c2nc(-c3ccc(O)cc3)cc(CN3CCNCC3c3ccc(C(F)(F)F)cc3)c12 (centres unmarked) [Example 44, 4-{3-Methyl-4-[2-(4-trifluoromethyl-phenyl)-piperazin-1-ylmethyl]-1H-pyrazolo[3,4-b]pyridin-6-yl}-phenol]
54 | Cc1n[nH]c2nc(-c3ccc(O)cc3)cc(CN3CCNCC3c3ccc(C(C)C)cc3)c12 (centres unmarked) [Example 45, 4-{4-[2-(4-Isopropyl-phenyl)-piperazin-1-ylmethyl]-3-methyl-1H-pyrazolo[3,4-b]pyridin-6-yl}-phenol]
90 | CCC1(NCc2cc(-c3ccc(O)cc3)nc3[nH]nc(C)c23)CCCNC1 (centres unmarked) [Example 46, 4-{4-[(3-Ethyl-piperidin-3-ylamino)-methyl]-3-methyl-1H-pyrazolo[3,4-b]pyridin-6-yl} phenol]
101 | Cc1n[nH]c2nc(-c3ccc(O)cc3)cc(CN3CCNCC34CCCC4)c12 [Example 47, 4-[4-(6,9-Diaza-spiro[4.5]dec-6-ylmethyl)-3-methyl-1H-pyrazolo[3,4-b]pyridin-6-yl]-phenol]
99 | Cc1n[nH]c2nc(-c3ccc(O)cc3)cc(CN3CC(C)NCC3(C)C)c12 (centres unmarked) [Example 48, 4-[3-Methyl-4-(2,2,5-trimethyl-piperazin-1-ylmethyl)-1H-pyrazolo-[3,4-b]pyridin-6-yl]-phenol]
95 | Cc1n[nH]c2nc(-c3ccc(O)cc3)cc(CN3CC(C)(C)NCC3(C)C)c12 [Example 49, 4-[3-Methyl-4-(2,2,5,5-tetramethyl-piperazin-1-ylmethyl)-1H-pyrazolo[3,4-b]pyridin-6-yl]-phenol]
96 | CCC1(C)CNC(C)(C)CN1Cc1cc(-c2ccc(O)cc2)nc2[nH]nc(C)c12 (centres unmarked) [Example 50, 4-[4-(2-Ethyl-2,5,5-trimethyl-piperazin-1-ylmethyl)-3-methyl-1H-pyrazolo[3,4-b]pyridin-6-yl]-phenol]
98 | CCC1(CC)CNC(C)(C)CN1Cc1cc(-c2ccc(O)cc2)nc2[nH]nc(C)c12 [Example 51, 4-[4-(2,2-Diethyl-5,5-dimethyl-piperazin-1-ylmethyl)-3-methyl-1H-pyrazolo[3,4-b]pyridin-6-yl]-phenol]
91 | Cc1n[nH]c2nc(-c3ccc(O)cc3)cc(CN3CC(C)(C)NCC3C)c12 (centres unmarked) [Example 52, 4-[3-Methyl-4-(2,5,5-trimethyl-piperazin-1-ylmethyl)-1H-pyrazolo[3,4-b]pyridin-6-yl]-phenol]
99 | CCC1CNC(C)(C)CN1Cc1cc(-c2ccc(O)cc2)nc2[nH]nc(C)c12 (centres unmarked) [Example 53, 4-[4-(2-Ethyl-5,5-dimethyl-piperazin-1-ylmethyl)-3-methyl-1H-pyrazolo[3,4-b]pyridin-6-yl]-phenol]
98 | Cc1n[nH]c2nc(-c3ccc(O)cc3)cc(CN3C[C@@H](C)NC[C@@H]3C)c12 [Example 54, 4-[4-((2S,5R)-2,5-Dimethyl-piperazin-1-ylmethyl)-3-methyl-1H-pyrazolo[3,4-b]pyridin-6-yl]-phenol]
86 | Cc1n[nH]c2nc(-c3ccc(O)cc3F)cc(CN3CCNC(C)(C)C3)c12 [Example 55, 4-[4-(3,3-Dimethyl-piperazin-1-ylmethyl)-3-methyl-1H-pyrazolo[3,4-b]pyridin-6-yl]-3-fluoro-phenol]
